The text below walks through data of patent publication US9365588B2, “Benzoxazines as modulators of ion channels” (Vertex Pharmaceuticals Incorporated, priority 2011, dated 2016).

Molecules are shown by their SMILES.

The target in the assay is human NaV 1.7 (Homo sapiens, UniProt Q15858). Put plainly: E-VIPR optical membrane potential assay with electrical stimulation. In kind it is cell-based. As to conditions: sodium channel inhibition; read-out: Binned Activity Data (IC50). The method, boiled down: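 Membrane-potential read-out: background-subtracted 460 nm/580 nm ratio during a 9 s current-controlled stimulus, 400 Hz scan. Before stimulation, NaV1.7-HEK cells carried coumarin/oxonol dye and compound (final DMSO 0.625%) for 20–35 min at room temperature; tetracaine 125 μM served as positive control.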
Chain of human NaV 1.7 (Q15858 whole entry): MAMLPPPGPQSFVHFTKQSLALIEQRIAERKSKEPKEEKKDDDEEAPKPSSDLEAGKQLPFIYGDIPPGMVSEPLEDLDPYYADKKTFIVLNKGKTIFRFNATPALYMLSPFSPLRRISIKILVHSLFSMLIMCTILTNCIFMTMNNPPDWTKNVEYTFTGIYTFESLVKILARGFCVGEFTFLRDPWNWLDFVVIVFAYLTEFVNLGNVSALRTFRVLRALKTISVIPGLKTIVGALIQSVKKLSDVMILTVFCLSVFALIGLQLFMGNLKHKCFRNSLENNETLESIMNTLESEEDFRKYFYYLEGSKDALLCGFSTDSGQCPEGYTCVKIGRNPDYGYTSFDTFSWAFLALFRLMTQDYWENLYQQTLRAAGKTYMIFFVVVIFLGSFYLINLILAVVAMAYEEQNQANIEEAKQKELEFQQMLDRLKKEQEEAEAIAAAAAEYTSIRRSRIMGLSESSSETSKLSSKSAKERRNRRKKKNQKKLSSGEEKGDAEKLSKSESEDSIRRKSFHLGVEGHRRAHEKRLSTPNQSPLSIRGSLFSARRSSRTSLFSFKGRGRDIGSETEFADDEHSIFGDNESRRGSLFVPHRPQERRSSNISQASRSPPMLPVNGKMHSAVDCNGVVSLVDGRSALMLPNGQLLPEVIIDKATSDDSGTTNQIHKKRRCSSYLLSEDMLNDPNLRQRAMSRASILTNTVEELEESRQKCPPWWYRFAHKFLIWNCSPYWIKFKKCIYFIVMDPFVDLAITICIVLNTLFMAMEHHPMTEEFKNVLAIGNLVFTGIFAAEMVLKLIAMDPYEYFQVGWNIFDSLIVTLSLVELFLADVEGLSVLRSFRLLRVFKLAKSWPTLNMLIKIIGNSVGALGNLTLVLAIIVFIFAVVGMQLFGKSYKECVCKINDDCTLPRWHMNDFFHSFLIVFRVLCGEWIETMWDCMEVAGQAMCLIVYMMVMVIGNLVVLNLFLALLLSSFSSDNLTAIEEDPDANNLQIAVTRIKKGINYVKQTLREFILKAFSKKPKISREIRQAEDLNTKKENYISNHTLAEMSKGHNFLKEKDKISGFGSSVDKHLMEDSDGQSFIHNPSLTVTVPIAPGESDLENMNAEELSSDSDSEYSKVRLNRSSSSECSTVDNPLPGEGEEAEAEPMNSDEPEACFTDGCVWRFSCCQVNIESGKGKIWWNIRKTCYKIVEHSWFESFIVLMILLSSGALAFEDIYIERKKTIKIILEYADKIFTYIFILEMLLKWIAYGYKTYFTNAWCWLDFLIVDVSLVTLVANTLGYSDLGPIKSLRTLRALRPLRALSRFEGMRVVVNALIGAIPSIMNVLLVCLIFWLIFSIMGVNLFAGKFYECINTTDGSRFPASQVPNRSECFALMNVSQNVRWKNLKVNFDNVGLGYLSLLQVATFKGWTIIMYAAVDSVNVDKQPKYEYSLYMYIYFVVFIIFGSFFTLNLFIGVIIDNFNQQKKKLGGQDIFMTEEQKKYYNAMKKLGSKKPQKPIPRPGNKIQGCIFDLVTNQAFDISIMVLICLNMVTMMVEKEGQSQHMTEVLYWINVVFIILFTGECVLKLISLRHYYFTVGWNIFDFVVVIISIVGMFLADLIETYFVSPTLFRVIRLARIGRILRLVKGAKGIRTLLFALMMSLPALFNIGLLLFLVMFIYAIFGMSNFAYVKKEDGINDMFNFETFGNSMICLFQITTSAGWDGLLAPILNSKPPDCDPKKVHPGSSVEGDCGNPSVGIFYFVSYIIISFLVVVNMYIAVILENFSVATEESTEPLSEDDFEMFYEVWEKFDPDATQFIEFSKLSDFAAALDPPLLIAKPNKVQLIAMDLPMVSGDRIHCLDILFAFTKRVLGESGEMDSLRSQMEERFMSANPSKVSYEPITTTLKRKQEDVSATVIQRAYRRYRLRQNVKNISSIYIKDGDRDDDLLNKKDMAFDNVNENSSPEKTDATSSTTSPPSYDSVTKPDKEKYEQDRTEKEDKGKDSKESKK
Turning to `O=C(c1cccnc1N1CCCC1)N1CCC2(CC1)Oc1ccccc1-n1c(C(F)(F)F)ccc12` [Compound 535], the IC50 was no more than 2000 nM.
With `CC(C)(C)c1ccc(C(=O)N2CCC3(CC2)Oc2cc(F)ccc2-n2cccc23)cc1C#N` [Compound 536], the IC50 is no more than 2000 nM.
The result for `COc1cc(C(=O)N2CCC3(CC2)Oc2ccccc2-c2c3cnn2C)ccc1C(C)(C)O` [Compound 537] reads no more than 2000 nM; that for `Cc1cc(C(=O)N2CCC3(CC2)Oc2ccccc2-n2cccc23)ccc1OC(C)(C)C` [Compound 538], no more than 2000 nM.
On to `N#Cc1ccc2n1-c1ccccc1OC21CCN(C(=O)c2ccc(S(=O)(=O)NCCCO)cc2)CC1` [Compound 540], for which the IC50 fell in the range of 2000 to 5000 nM.
Take `O=C(c1ccc(S(=O)(=O)NC2CC2)cc1)N1CCC2(CC1)Oc1ccccc1-n1c(C(F)(F)F)ccc12` [Compound 541]: the half-maximal inhibitory concentration (IC50) is no more than 2000 nM.
Take `COc1ccc(C(=O)N2CCC3(CC2)Oc2ccccc2-n2cccc23)cc1S(N)(=O)=O` [Compound 542]: the IC50 lay in the range of 2000 to 5000 nM.
Regarding `Cc1cc(C(=O)N2CCC3(CC2)Oc2ccccc2-c2c3cnn2C)ccc1S(=O)(=O)C(C)C` [Compound 543], the IC50 was no more than 2000 nM.
For the molecule `COc1c(F)cccc1C(=O)N1CCC2(CC1)Oc1ccccc1-c1c2cnn1C(C)C` [Compound 544], the IC50 was no more than 2000 nM.
`CCc1ccccc1C(=O)N1CCC2(CC1)Oc1ccccc1-c1c2cnn1C` [Compound 546]: the IC50 is no more than 2000 nM.
`Cc1cc(C(=O)N2CCC3(CC2)Oc2cc(Cl)ccc2-n2cccc23)ccc1OCC1CCCO1` (centres unmarked) [Compound 547]: the IC50 was no more than 2000 nM.
The result for `Cc1cc(C#N)n2c1C1(CCN(C(=O)c3ccc(S(=O)(=O)C(C)C)cc3)CC1)Oc1ccccc1-2` [Compound 549] reads no more than 2000 nM; that for `Cn1ncc2c1-c1ccccc1OC21CCN(C(=O)c2cnn(-c3ccccc3)c2C(F)(F)F)CC1` [Compound 550], 2000 to 5000 nM; that for `O=C(c1ccnc(N2CCCCC2)c1)N1CCC2(CC1)Oc1ccccc1-n1cccc12` [Compound 551], no more than 2000 nM.
Then `COCCn1ccc(C(=O)N2CCC3(CC2)Oc2cc(Cl)ccc2-n2cccc23)cc1=O` [Compound 552], with no more than 2000 nM; and `COc1cc(C(=O)N2CCC3(CC2)Oc2ccccc2-c2[nH]ncc23)ccc1OC(C)(C)C` [Compound 553], with 2000 to 5000 nM.
Take `Cc1cc(C(=O)N2CCC3(CC2)Oc2ccccc2-n2c3ccc2S(C)(=O)=O)ccc1OC(C)C` [Compound 554]: the IC50 was no more than 2000 nM.
Then `CCc1ccc(C(=O)N2C3CCC2CC2(C3)Oc3ccccc3-n3cccc32)cc1OC` (centres unmarked) [Compound 555], with no more than 2000 nM.
For `O=C(c1ccc2[nH]ncc2c1)N1CCC2(CC1)Oc1ccccc1-n1c(C(F)(F)F)ccc12` [Compound 556], the IC50 is 2000 to 5000 nM.
Turning to `COc1cc(C(=O)N2CCC3(CC2)Oc2ccccc2-c2c3cnn2C)ccc1S(=O)(=O)C(C)(C)C` [Compound 557], the half-maximal inhibitory concentration (IC50) is no more than 2000 nM.
The result for `CNS(=O)(=O)c1ccc(C(=O)N2CCC3(CC2)Oc2ccccc2-n2c(C(F)(F)F)ccc23)cc1C` [Compound 558] reads no more than 2000 nM; that for `CC(C)Oc1ccc(C(=O)N2CCC3(CC2)Oc2ccccc2-n2c(C#N)ccc23)cc1CO` [Compound 559], no more than 2000 nM; that for `COc1cc(F)c(C(=O)N2CCC3(CC2)Oc2cc(Cl)ccc2-n2cccc23)cc1OC` [Compound 561], no more than 2000 nM.
The result for `Cc1cc(C(=O)N2CCC3(CC2)Oc2ccccc2-n2cccc23)ccc1C#N` [Compound 562] reads no more than 2000 nM; that for `CCc1ccc(C(=O)N2CCC3(CC2)Oc2ccccc2-n2c(C(F)(F)F)ccc23)nc1` [Compound 564], 2000 to 5000 nM; that for `Cc1ccc(C(=O)N2CCC3(CC2)Oc2ccccc2-n2c(C(F)(F)F)ccc23)nc1` [Compound 566], greater than 5000 nM.
With `COc1cc(C(=O)N2CCC3(CC2)Oc2cc(F)ccc2-n2cccc23)ccc1C(C)(C)OC` [Compound 567], the IC50 is no more than 2000 nM.
With `COc1ccc(C(=O)N2CCC3(CC2)Oc2ccccc2-c2c3ccn2C)cc1C(F)(F)F` [Compound 568], the IC50 was no more than 2000 nM.
For the molecule `Cn1ncc2c1-c1ccccc1OC21CCN(C(=O)c2ccc(OC3COC3)c(F)c2)CC1` [Compound 569], the IC50 is greater than 5000 nM.
In the case of `COc1cc(C(=O)N2CCC3(CC2)Oc2ccccc2-n2cccc23)ccc1OC(C)(C)C#N` [Compound 570], the half-inhibitory concentration (IC50) was no more than 2000 nM.
For `C[C@](O)(CO)c1ccc(C(=O)N2CCC3(CC2)Oc2ccccc2-n2c(C#N)ccc23)cc1` [Compound 571], the IC50 is no more than 2000 nM.
In the case of `CC(C)(O)c1ccc(C(=O)N2CCC3(CC2)Oc2ccccc2-n2c(C(F)(F)F)ccc23)cc1CO` [Compound 572], the half-maximal inhibitory concentration (IC50) was in the range of 2000 to 5000 nM.
Turning to `COc1cc(C(=O)N2CCC3(CC2)Oc2ccccc2-n2cccc23)ccc1C(C)(C)C` [Compound 573], the IC50 is no more than 2000 nM.
With `COc1cc(C(F)(F)F)ccc1C(=O)N1CCC2(CC1)Oc1ccccc1-c1c2cnn1C` [Compound 574], the IC50 was no more than 2000 nM.
The result for `COc1cc(OC)c(C(=O)N2CCC3(CC2)Oc2cc(Cl)ccc2-n2cccc23)cc1CO` [Compound 576] reads no more than 2000 nM; that for `COc1ccc(C(=O)N2CCC3(CC2)Oc2cc(Cl)ccc2-n2cccc23)c(OC)c1` [Compound 578], no more than 2000 nM.
Then `CC(C)S(=O)(=O)c1ccc(C(=O)N2CCC3(CC2)Oc2ccccc2-n2cccc23)cc1` [Compound 579], with no more than 2000 nM; and `CC(C)NS(=O)(=O)c1ccc(C(=O)N2CCC3(CC2)Oc2ccc(F)cc2-c2nn(C)cc23)cc1` [Compound 580], with no more than 2000 nM; and `CC(C)Oc1ccc(C(=O)N2CCC3(CC2)Oc2ccccc2-c2c3cnn2C)c(Cl)c1` [Compound 581], with no more than 2000 nM.
Take `CCn1ncc2c1-c1ccccc1OC21CCN(C(=O)c2ccc(S(C)(=O)=O)c(C)c2)CC1` [Compound 582]: the IC50 is no more than 2000 nM.
Then `Cc1cc(C(=O)N2CCC3(CC2)Oc2ccccc2-c2c3ncn2C)ccc1OC(C)C` [Compound 583], with no more than 2000 nM; and `COc1cc(C(=O)N2CCC3(CC2)Oc2ccccc2-n2cccc23)ccc1OCC(=O)O` [Compound 585], with 2000 to 5000 nM; and `COc1cc(C(=O)N2CCC3(CC2)Oc2ccccc2-c2c3cnn2C)ccc1S(=O)(=O)C(C)C` [Compound 586], with greater than 5000 nM.
For `COCCOc1ccc(C(=O)N2CCC3(CC2)Oc2ccccc2-c2c3cnn2C)cc1Cl` [Compound 587], the IC50 was no more than 2000 nM.
As to `COc1cc(C(=O)N2CCC3(CC2)Oc2cc(F)ccc2-n2cccc23)ccc1OC[C@@H](O)CO` [Compound 588], the IC50 is no more than 2000 nM.
Turning to `COc1cc(C(=O)N2CCC3(CC2)Oc2ccccc2-c2nn(CC(F)(F)F)cc23)ccc1OCCC(C)C` [Compound 589], the IC50 was no more than 2000 nM.
`CCNS(=O)(=O)c1ccc(C(=O)N2CCC3(CC2)Oc2ccccc2-n2c(C(F)(F)F)ccc23)cc1` [Compound 590]: the IC50 is no more than 2000 nM.
With `COc1cc(C(=O)N2CCC3(CC2)Oc2cc(F)ccc2-n2cccc23)ccc1O[C@H]1CCOC1` [Compound 592], the IC50 is no more than 2000 nM.
Consider `Cn1ncc2c1-c1ccccc1OC21CCN(C(=O)c2ccccc2OCC(F)(F)F)CC1` [Compound 593], for which the 50% inhibitory concentration (IC50) is no more than 2000 nM.
With `CC(C)n1ncc2c1-c1ccccc1OC21CCN(C(=O)c2ccc(S(=O)(=O)C(C)C)cc2)CC1` [Compound 594], the IC50 was no more than 2000 nM.
For the molecule `Cn1cc2c(n1)-c1ccccc1OC21CCN(C(=O)c2ccc3[nH]ncc3c2)CC1` [Compound 595], the IC50 was no more than 2000 nM.
Then `COCCOc1ccc(C(=O)N2CCC3(CC2)Oc2ccccc2-n2c(C)ccc23)cc1OC` [Compound 596], with no more than 2000 nM.
`Cn1cc2c(n1)-c1ccccc1OC21CCN(C(=O)c2ccc(CC(C)(C)O)cc2)CC1` [Compound 598]: the concentration for half-maximal inhibition (IC50) was no more than 2000 nM.
Then `CC(C)Oc1ccc(C(=O)N2CCC3(CC2)Oc2ccccc2-c2c3cnn2C)c(F)c1` [Compound 599], with no more than 2000 nM; and `Cn1ncc2c1-c1ccccc1OC21CCN(C(=O)c2cn(C)c3cccnc23)CC1` [Compound 600], with no more than 2000 nM.
The result for `COc1ccc(-n2ncc(C(=O)N3CCC4(CC3)Oc3ccccc3-c3c4cnn3C)c2C)cc1` [Compound 601] reads no more than 2000 nM.
Then `COc1cc(C(=O)N2CCC3(CC2)Oc2ccccc2-n2cccc23)ccc1OCCC(C)C` [Compound 602], with no more than 2000 nM; and `COc1c(C)cccc1C(=O)N1CCC2(CC1)Oc1cc(Cl)ccc1-n1cccc12` [Compound 605], with no more than 2000 nM; and `CC(C)(O)c1ccc(C(=O)N2CCC3(CC2)Oc2ccccc2-n2c3ccc2S(C)(=O)=O)cc1` [Compound 607], with 2000 to 5000 nM.
On to `Cc1cccc(C(=O)N2CCC3(CC2)Oc2ccccc2-c2c3cnn2C)c1OC(C)C` [Compound 608], for which the IC50 is no more than 2000 nM.
Turning to `COc1cc(C(=O)N2CCC3(CC2)Oc2cc(Cl)ccc2-n2cccc23)ccc1C(C)CO` (centres unmarked) [Compound 609], the IC50 is no more than 2000 nM.
Then `Cc1cc(C(=O)N2CCC3(CC2)Oc2ccccc2-c2c3cnn2C)ccc1OC(C)(C)C` [Compound 610], with no more than 2000 nM; and `Cc1nc2ccc(C(=O)N3CCC4(CC3)Oc3ccccc3-c3nn(C)cc34)cc2s1` [Compound 611], with no more than 2000 nM; and `COc1cc(C(=O)N2CCC3(CC2)Oc2cc(F)ccc2-n2cccc23)ccc1C1(O)COC1` [Compound 612], with no more than 2000 nM.
Then `CC(C)S(=O)(=O)c1ccc(C(=O)N2CCC3(CC2)Oc2ccccc2-c2c3cnn2C)cc1` [Compound 613], with no more than 2000 nM; and `COc1cccc(F)c1C(=O)N1CCC2(CC1)Oc1ccccc1-n1c2ccc1S(C)(=O)=O` [Compound 614], with 2000 to 5000 nM; and `COc1cc(C(=O)N2CCC3(CC2)Oc2cc(F)ccc2-c2c3cnn2C)ccc1OC(C)C` [Compound 617], with no more than 2000 nM.
On to `O=C(c1ccccc1OC(F)F)N1CCC2(CC1)Oc1ccccc1-n1c(C(F)(F)F)ccc12` [Compound 618], for which the IC50 is no more than 2000 nM.
